We go through 84 compounds from PubChem BioAssay AID489033 (Sanford-Burnham Center for Chemical Genomics, 2010).

pIC50: −log10 of the molar value. The source made the active and inactive calls. No rule for the calls is given here.

This assay has as its system 697B B-cell line, NF-kB luciferase reporter luminescence. The assay can be described thus: NF-kB reporter inhibition in B cells, dose response, selectivity assay for T-cell antigen receptor NF-kB inhibitors, 697B cells, luminescence (AID 489033).
In general, pIC50 refers to −log10 of the IC50, conventionally taken in molar units. Turning to `COc1ccc(C[C@H](N)C(=O)N[C@H]2[C@@H](O)[C@H](n3cnc4c(N(C)C)ncnc43)O[C@@H]2CO)cc1`, the pIC50 is 5.79.

`CC(C)(C)c1ccc(C(=O)O/N=C(\N)c2ccccn2)cc1`: the pIC50 was 6.06.

Take `COc1ccc(NC(=O)/C(Cl)=C(/Cl)S(=O)Cc2ccc(C)cc2)cn1` (centres undefined): the pIC50 was over 6.80.

For `CCN(CC)c1ccc(/C=N/NC(=O)c2cccc(S(=O)(=O)Nc3ccccc3OC)c2)c(O)c1`, the negative logarithm of the IC50 (pIC50) is 5.48.

As usually defined, the IC50 is the concentration at which inhibition is half-maximal. `Cc1cc(/C=C2\Sc3ccccc3N2C)cc(C)[n+]1CC1CCCO1` (centres undefined): the IC50 was > 80 µM (inactive).

`Cc1cc(-c2ccc(C(C)C)c(S(=O)(=O)N3CCN(c4ccccc4)CC3)c2)on1`: the IC50 was > 80 µM (inactive).

Turning to `CC(=O)Nc1ccc(S(=O)(=O)N2c3ccc(F)cc3CCC2C)cc1` (centres undefined), the IC50 was > 80 µM (inactive).

As for `O=C(Nc1ccc(Oc2cccnc2)nc1)c1ccc(C(F)(F)F)cc1`, the pIC50 is 6.60.

Take `COc1ccc(C2=NOC(C(=O)NCc3ccc(F)cc3)C2)cc1OC` (centres undefined): the IC50 was > 80 µM (inactive).

Take `COc1ccc(C2=Nn3c(nnc3-c3ccccc3OC)SC2)cc1OC1CCCC1`: the pIC50 is 5.45.

Take `COc1ccc(CCNc2cc(N3CCN(C(=O)c4ccccc4F)CC3)ccc2[N+](=O)[O-])cc1OC`: the IC50 was > 80 µM (inactive).

With `Cc1ccc(C(=O)c2cc([N+](=O)[O-])ccc2N2CCCCC2)cc1C`, the IC50 is > 80 µM (inactive).

Regarding `CCCc1cc(C(=O)Nc2cc(C)ccc2O)no1`, the IC50 was > 80 µM (inactive).

For the compound `O=c1cc(-c2ccccc2)[nH]c2cc(Cl)ccc12`, the IC50 is > 80 µM (inactive).

For `CCOC(=O)c1c(C)[nH]c(C(=O)N/N=C/c2ccc(Br)cc2)c1C`, the IC50 was > 80 µM (inactive).

Consider `COc1cc(NS(=O)(=O)c2ccc(C)cc2)c2ncccc2c1`, for which the pIC50 is 5.98.

In the case of `COc1cccc(/C=N/Nc2ccc(C(=O)O)cc2)c1O`, the negative logarithm of the IC50 (pIC50) is 6.08.

Take `COc1ccc(CS(=O)(=O)/C(Cl)=C(/Cl)C(=O)Nc2ccc(OC)nc2)cc1`: the negative logarithm of the IC50 (pIC50) is 5.48.

For `CC(C)c1ccc(/C=N/Nc2ccc(C(=O)O)cc2)cc1`, the pIC50 was 4.97.

As for `C=C(C)COc1ccc(-c2[nH]ncc2-c2ccc(OC)c(OC)c2)c(O)c1`, the IC50 was 41.7 µM (inactive).

`O=C(COc1ccc(C(=O)c2ccccc2)cc1)NCc1ccc(F)cc1`: the IC50 is > 80 µM (inactive).

On to `Cn1ncnc2c(=O)n(C)c(=O)nc1-2`, for which the pIC50 was 5.55.

On to `Cc1c(C(=O)OCc2ccccc2)[nH]c2c1C(=O)CC(c1ccco1)C2` (centres undefined), for which the IC50 is > 80 µM (inactive).

With `COc1cccc(/C=N/Nc2ncnc3scc(-c4ccccc4)c23)c1O`, the IC50 was 39.8 µM (inactive).

As to `COc1ccccc1N1CCN(C(=O)C2c3ccccc3Oc3ccccc32)CC1`, the IC50 is > 80 µM (inactive).

`CCN(c1ccccc1)S(=O)(=O)c1ccc(C(=O)NC2CCN(Cc3ccccc3)CC2)cc1`: the IC50 is > 80 µM (inactive).

For `O=S1(=O)C=C(Sc2nc3cc(Cl)ccc3o2)c2ccccc21`, the negative logarithm of the IC50 (pIC50) is 6.68.

In the case of `Cc1cc(C)nc(SCC(=O)Nc2ccnc3ccccc23)n1`, the IC50 is > 80 µM (inactive).

In the case of `Cc1ccc(C[n+]2c(-c3ccc(C)cc3)cc(-c3ccc(C)cc3)cc2-c2ccc(C)cc2)cc1`, the negative logarithm of the IC50 (pIC50) was 6.54.

For the compound `Cc1ccc(C)c(NS(=O)(=O)c2ccc(-c3cnc(C4CC4)o3)cc2)c1`, the IC50 was > 80 µM (inactive).

Consider `COc1ccccc1N=C(C)C1=C(O)CC(c2ccccc2)CC1=O` (centres undefined), for which the IC50 is > 80 µM (inactive).

On to `Cc1cc(-c2ccc(C)c(S(=O)(=O)N3CCN(c4ccc([N+](=O)[O-])cc4)CC3)c2)on1`, for which the IC50 is > 80 µM (inactive).

On to `Cc1sc2ncnc(NC3CCN(Cc4ccccc4)CC3)c2c1C`, for which the pIC50 is 5.60.

For `CCOc1ccc(Br)cc1C1=CC(=O)C[C@H](c2ccc(OC)cc2)C1`, the IC50 is > 80 µM (inactive).

On to `COc1cc(-c2noc(C)c2/C=C/c2ccc(OC(C)=O)cc2)cc(OC)c1OC`, for which the IC50 is > 80 µM (inactive).

For the compound `COc1ccccc1-c1nnc2sc(-c3ccc(N(C)C)cc3)nn12`, the IC50 was > 80 µM (inactive).

With `CC[C@@]1(O)C(=O)OCc2c1cc1n(c2=O)Cc2cc3c(CN(C)C)c(O)ccc3nc2-1`, the pIC50 is 6.02.

As to `CCOCCCNC(=O)c1cc2c(=O)n3cccc(C)c3nc2n1C`, the IC50 is > 80 µM (inactive).

Take `CCCOc1ccccc1C1CC(=O)Nc2cc3c(cc21)OCO3` (centres undefined): the IC50 was > 80 µM (inactive).

`C[C@@H]1O[C@@H](O[C@H]2C[C@@H](O)[C@]3(CO)[C@@H]4C(CC[C@]3(O)C2)[C@@]2(O)CC[C@H](C3COC(=O)C3)[C@@]2(C)C[C@H]4O)[C@H](O)[C@H](O)[C@H]1O` (some centres undefined): the pIC50 is 4.91.

Consider `CC(=O)O[C@H]1C(=O)[C@@]2(C)[C@H]([C@H](OC(=O)c3ccccc3)[C@]3(O)C[C@H](OC(=O)[C@H](O)[C@@H](NC(=O)c4ccccc4)c4ccccc4)C(C)=C1C3(C)C)[C@]1(OC(C)=O)CO[C@@H]1C[C@@H]2O`, for which the IC50 is > 80 µM (inactive).

Take `COc1ccc(/C=C/C(=O)c2cc(F)ccc2OC(=O)c2ccccc2)cc1OC`: the IC50 was > 80 µM (inactive).

For the compound `COc1cccc(N2CCN(C(=O)c3ccc(CS(=O)c4ccccc4Cl)o3)CC2)c1` (centres undefined), the IC50 was 69.8 µM (inactive).

Turning to `O=C(N/N=C/c1c(O)ccc2ccccc12)c1cccc(C(F)(F)F)c1`, the pIC50 was 4.73.

With `CCOC(=O)C(C)Oc1cccc2c(=O)n(CC(=O)NCc3ccc4c(c3)OCO4)ccc12` (centres undefined), the IC50 is > 80 µM (inactive).

As for `Cn1cc(/C=N/n2cnc3scc(-c4ccc(Cl)cc4)c3c2=O)c2ccccc21`, the IC50 was > 80 µM (inactive).

Consider `O=C(Nc1ccc(N2CCOCC2)cc1)c1ccc(Cl)c(S(=O)(=O)N2CCCCC2)c1`, for which the IC50 is > 80 µM (inactive).

Regarding `CCOC(=O)N=Nc1c2ccccc2c2nc3no[nH]c3nc12`, the negative-log IC50 (pIC50) was 5.64.

Consider `Cc1nc(NCc2ccco2)c2c(C)c(C)sc2n1`, for which the pIC50 is 5.28.

As for `Cc1cc(O)c2c(c1O)C(=O)[C@]13C(=C2O)C(=O)[C@@H]2[C@@H](O)[C@H]1[C@@H]1[C@H](O)[C@H]3C(=O)C3=C(O)c4c(O)cc(C)c(O)c4C(=O)[C@]312`, the IC50 was > 80 µM (inactive).

As to `COc1ccc(-c2csc(NC(=O)C3CCN(c4ncnc5sc(C)c(C)c45)CC3)n2)cc1OC`, the negative-log IC50 (pIC50) was 4.94.

Take `CC[C@@]1(O)C(=O)OCc2c1cc1n(c2=O)Cc2cc3c(N)cccc3nc2-1`: the pIC50 was 6.21.

In the case of `CSc1nc(N(C)NC(=O)c2cccc(C)c2)c2ccccc2n1`, the IC50 is > 80 µM (inactive).

For the compound `CCOC(=O)c1[nH]c(C)c(C(=O)Nc2ccccc2C)c1C`, the IC50 is 40.3 µM (inactive).

`Cn1ncc2c(N3CCN(c4ccc(Cl)c(Cl)c4)CC3)ncnc21`: the IC50 was > 80 µM (inactive).

For `Cc1cc(C)cc(C(=O)N2CC(=O)Nc3ccccc32)c1`, the IC50 was > 80 µM (inactive).

As for `Cc1ccc(-c2cc(C(F)F)n3ncc(C(=O)N4CCc5ccccc54)c3n2)cc1`, the IC50 was > 80 µM (inactive).

Take `O=C(Nc1ccc(CSc2ccccc2)cc1)c1ccc(CN2CCOCC2)cc1`: the IC50 is > 80 µM (inactive).

Regarding `O=C(c1ccccc1-c1ccccc1)N1CCN(c2ccccn2)CC1`, the IC50 is > 80 µM (inactive).

Consider `C=CCOC(=O)c1[nH]c2c(c1C)C(=O)CC(c1ccco1)C2` (centres undefined), for which the IC50 is > 80 µM (inactive).

`Cc1ccc(S(=O)(=O)Nc2cccc(-c3ccc4nncn4n3)c2)cc1`: the IC50 is > 80 µM (inactive).

On to `Cc1cc(C)c(CN2CCN(C(=O)Cn3cnc4c(OCc5ccccc5)ncnc43)CC2)c(C)c1`, for which the IC50 is > 80 µM (inactive).

In the case of `Cc1ccc(NC(=O)CSc2nc(-c3ccco3)cc(C(F)(F)F)n2)cc1C`, the IC50 was > 80 µM (inactive).

With `CCc1cc2c(=O)nc3n(c2s1)Cc1ccccc1/C3=C(/O)c1cccc([N+](=O)[O-])c1`, the IC50 was > 80 µM (inactive).

For `O=C(O)c1ccc(N/N=C/c2ccc3c(c2)OCO3)cc1`, the pIC50 is 5.98.

On to `O=C(N/N=C\c1c(O)ccc2ccccc12)c1cncc(Br)c1`, for which the IC50 was > 80 µM (inactive).

Turning to `COc1ccc([C@H]2CC(=O)C=C(c3ccc(OC)cc3OC)C2)cc1`, the IC50 was > 80 µM (inactive).

Take `CC(C)c1oc(=O)cc2c1[C@@H](O)[C@H]1OC(=O)[C@@]3(C)C[C@@H](O)[C@@H](O)[C@@]2(C)C13` (some centres undefined): the negative logarithm of the IC50 (pIC50) was 5.14.

As for `Cc1ccc(C(=O)Nc2cccc(C(=O)O)c2)cc1`, the negative-log IC50 (pIC50) was 5.77.

`C=CCNC(=S)N/N=C(\C)c1ccccn1`: the pIC50 was 6.21.

With `CCCC(=O)NC(c1ccc(OC)cc1)c1ccc2cccnc2c1O` (centres undefined), the IC50 is > 80 µM (inactive).

Turning to `Cc1nn(C)c(C)c1CN(Cc1nc(CCC(C)C)no1)C(C)C`, the IC50 is > 80 µM (inactive).

In the case of `CN(C)c1ccc(-[n+]2c(-c3ccccc3)cc(-c3ccccc3)cc2-c2ccccc2)cc1`, the pIC50 was 6.10.

Consider `COc1ccc([C@H]2CC(=O)C=C(c3c(OC)cccc3OC)C2)cc1`, for which the IC50 was > 80 µM (inactive).

As for `Cc1cc2c(cc1C)C(c1ccccc1OC(C)C)CC(=O)N2` (centres undefined), the IC50 is > 80 µM (inactive).

On to `CCCC(=O)NC(c1ccc(C)cc1)c1ccc2cccnc2c1O` (centres undefined), for which the IC50 was > 80 µM (inactive).

Turning to `COc1ccc(S(=O)(=O)Nc2cccc(-c3ccc4nncn4n3)c2)cc1F`, the IC50 is > 80 µM (inactive).

For the compound `COc1cccc(N2CCN(C(=O)c3cn(Cc4ccccc4)nc3-c3cccnc3)CC2)c1`, the IC50 is > 80 µM (inactive).

With `C=C(C=O)C[C@@H]1C[C@H](O)C2OC3C[C@]4(C)OC5/C=C\CC6OC7C(CC=CCC6OC5CCCC4OC3CC2O1)OC1CC2OC3CC(=O)OC3C[C@@H](C)C[C@@]2(C)OC1C[C@@H]7C` (some centres undefined), the pIC50 was 5.99.

Turning to `Cc1noc(C)c1CSc1nc2ccccc2c(=O)n1-c1ccccc1`, the IC50 is > 80 µM (inactive).

In the case of `O=C(Nc1ccc(F)cc1)c1ccc(CN2CCc3ccccc3C2)cc1`, the IC50 is > 80 µM (inactive).

For the compound `CC(C)(C)c1ccc(C(=O)O/N=C(\N)c2ccccc2)cc1`, the pIC50 is 6.77.

In the case of `CCCCCCCCCn1c2c(c(=N)c3c1CCC3)CCC2`, the negative logarithm of the IC50 (pIC50) was 4.97.

Consider `COc1cccc(-c2cc(C(=O)Nc3cc(C)n(Cc4ccc(Cl)cc4)n3)no2)c1`, for which the IC50 was > 80 µM (inactive).
